Experimental findings from patent publication US7008927B2, “Pralmorelin-containing nasal drop preparations” (Kaken Pharmaceutical Co., Ltd., priority 2000, dated 2006) are described below.

Where a SMILES comes first, the peptide text is derived from it. [ ]: non-standard residue; d: D form. d2Nal = N[C@H](Cc1ccc2ccccc2c1)C(=O)O

The nature of data set [1]: In vivo absorption after intranasal administration to rats (plasma concentration, two-antibody competition method). The conditions noted are these: Crj:CD (SD), rat; for Tmax: male rats; for AUC / Cmax / bioavailability: male. How it is done:
With an isotonic solution (in distilled water) of 5 w/v % D-mannitol or physiological saline used as a solvent, a solution of 0.1 w/v % pralmorelin dihydrochloride was prepared and administered to male rats (7-week old, Crj:CD (SD) strain, N=3) in an amount of 50 μg/kg.
With the rats fixed supine under an unanesthetized condition, the pralmorelin solution was administered into one nostril of each rat in an amount of 50 μg/kg with a micropipette. The rats were not anesthetized for two reasons: actual drug administration is effected without anesthesia; the effects anesthetization would have on drug absorption have not been elucidated.
The concentration of an unchanged substance in plasma was measured in accordance with the two-antibody competition method of Kitagawa et al. summarized below [J. Assoc. Off. Anal. Chem., Vol. 68, No. 4, pp. 661–664 (1985) and J. Immunological Methods, 72, pp. 109–118 (1984)].
Anti-rabbit IgG goat IgG (Jackson Immuno Research) as the second antibody was adsorbed on an ELISA 96-well microplate (GREINER). Then, anti-pralmorelin dihydrochloride rabbit serum was adsorbed on the same microplate; the serum was the first antibody and had been obtained by subcutaneous injection of rabbits with an immunogen having pralmorelin dihydrochloride bound to bovine serum albumin (Sigma) by means of water-soluble carbodiimide (Nakarai Tesk).
Pralmorelin dihydrochloride contained in a sample was allowed to compete for pralmorelin labeled β-galactosidase that had been crosslinked with crosslinker N-(m-maleimidebenzoyloxy)succinimide (Nakaral Tesk); then, the β-galactosidase bound to the first antibody was reacted with 4-methylumbelliferyl-β-D-galactopyranoside; thereafter, the enzymatic activity of the β-galactosidase bound to the first antibody was measured at an excitation wavelength of 370 nm and a fluorescence wavelength of 460 nm.
From the measured values for the enzymatic activity of the β-galactosidase, the maximum plasma drug concentration (Cmax) of pralmorelin dihydrochloride, the area under the plasma drug concentration vs time curve (AUC) and the bioavailability (the ratio of AUC obtained by intranasal administration to AUC obtained by intravenous administration) were obtained.
Two kinds of preparation for intranasal administration, one consisting of pralmorelin dihydrochloride and distilled water and the other further containing D-mannitol at varying concentrations, were evaluated for their effects on in vivo absorption of pralmorelin dihydrochloride. With four kinds of solvent, distilled water, 2.5 w/v % D-mannitol solution (osmolarity ratio, 0.5), 5 w/v % D-mannitol solution (osmolarity ratio, 1), 10 w/v % D-mannitol solution (osmolarity ratio, 2), solutions of 0.4 w/v % pralmorelin dihydrochloride were prepared and administered in an amount of 50 μg/kg to male rats as in Example 1.
With an aqueous solution of 0.005 w/v % benzalkonium chloride used as a base, pralmorelin preparations for intranasal administration were made at three concentrations, 0.1 w/v %, 0.3 w/v % and 1.0 w/v %, of pralmorelin dihydrochloride. Each preparation was dripped into the right nostril of 5-week old male Crj:CD (SD) rats (N=3). The dose of administration was 0.1 mg/kg, 0.3 mg/kg and 1.0 mg/kg for the respective preparations, which were all administered in a volume of 0.1 ml/kg.

Data set [2] in a line: Saturated solubility in physiological saline. The data set is classed as physicochemical. The conditions noted are these: 25° C., as dihydrochloride. As to the method: To be more specific, pralmorelin has low saturated solubility in physiological saline (0.15 w/v % at 25° C. when it is dihydrochloride) and at higher concentrations, pralmorelin becomes insoluble with the lapse of time and a problem occurs in terms of storage stability, thus making it difficult to formulate pralmorelin pharmaceutically using physiological saline. Even at concentrations lower than its saturated solubility, pralmorelin has low in vivo absorption and needs frequent administration.

The mark [3] stands for this setting: inhaled or intranasal, 50 ug/kg, intranasal 50 μg/kg, 0.1 w/v % solution in 5 w/v % D-mannitol.
Setting [4] is: inhaled or intranasal, 50 ug/kg, intranasal 50 μg/kg, 0.1 w/v % solution in physiological saline.
Setting [5] is: inhaled or intranasal, 50 ug/kg, intranasal 50 μg/kg, 0.4 w/v % solution in 2.5 w/v % D-mannitol (osmolarity ratio 0.5).
The mark [6] stands for this setting: inhaled or intranasal, 50 ug/kg, intranasal 50 μg/kg, 0.4 w/v % solution in 5 w/v % D-mannitol (osmolarity ratio 1).
[7] abbreviates: inhaled or intranasal, 50 ug/kg, intranasal 50 μg/kg, 0.4 w/v % solution in 10 w/v % D-mannitol (osmolarity ratio 2).
Where [8] appears, read: inhaled or intranasal, 50 ug/kg, intranasal 50 μg/kg, 0.4 w/v % solution in distilled water.
Setting [9] is: inhaled or intranasal, 0.1 mg/kg, intranasal 0.1 mg/kg, 0.1 w/v % in aqueous 0.005 w/v % benzalkonium chloride, 0.1 ml/kg.
Setting [10] is: inhaled or intranasal, 0.3 mg/kg, intranasal 0.3 mg/kg, 0.3 w/v % in aqueous 0.005 w/v % benzalkonium chloride, 0.1 ml/kg.
[11] abbreviates: inhaled or intranasal, 1 mg/kg, intranasal 1.0 mg/kg, 1.0 w/v % in aqueous 0.005 w/v % benzalkonium chloride, 0.1 ml/kg.

For orientation: Tmax means the time at which the peak concentration occurs. As usually defined, the AUC is the area under the concentration-time curve, a measure of exposure. A lower AUC goes with less exposure. Usually Cmax stands for the peak of the concentration-time curve. The term bioavailability denotes dose-corrected exposure relative to a reference, in per cent. As to `C[C@H](NC(=O)[C@@H](Cc1ccc2ccccc2c1)NC(=O)[C@@H](C)N)C(=O)N[C@@H](Cc1c[nH]c2ccccc12)C(=O)N[C@H](Cc1ccccc1)C(=O)N[C@@H](CCCCN)C(N)=O.Cl.Cl` [pralmorelin dihydrochloride, D-alanyl-3-(naphthalen-2-yl)-D-alanyl-L-alanyl-L-tryptophyl-D-phenylalanyl-L-lysinamide dihydrochloride] (H-[dA][d2Nal]AW[dF]K-NH2), the Tmax in data set [1] (inhaled or intranasal, intranasal 0.1 mg/kg, 0.1 w/v % in aqueous 0.005 w/v % benzalkonium chloride, 0.1 ml/kg) was 10.2 min; in data set [1] (inhaled or intranasal, intranasal 0.3 mg/kg, 0.3 w/v % in aqueous 0.005 w/v % benzalkonium chloride, 0.1 ml/kg) it was 10.2 min; in data set [1] (inhaled or intranasal, intranasal 1.0 mg/kg, 1.0 w/v % in aqueous 0.005 w/v % benzalkonium chloride, 0.1 ml/kg) it was 10.2 min. The AUC in data set [1] (setting [3]) was 2.71 ng·h/mL; in data set [1] (setting [4]), 1.98 ng·h/mL; in data set [1] (setting [9]), 14.5 ng·h/mL; in data set [1] (setting [10]), 48.1 ng·h/mL; in data set [1] (setting [11]), 250 ng·h/mL. Further, the Cmax worked out at 2.37 ng/mL in data set [1] (setting [3]); 0.7 ng/mL in data set [1] (setting [4]); 55.8 ng/mL in data set [1] (setting [5]); 49.2 ng/mL in data set [1] (setting [6]); 21.7 ng/mL in data set [1] (setting [7]); 60.7 ng/mL in data set [1] (setting [8]). In addition, the Cmax amounted to 18 ng/mL in data set [1] (setting [9]), 72.8 ng/mL in data set [1] (setting [10]) and 502 ng/mL in data set [1] (setting [11]). Besides, the bioavailability in data set [1] (setting [5]) was determined as 22.1%; in data set [1] (setting [6]), 19%; in data set [1] (setting [7]), 9%; in data set [1] (setting [8]) it was 26.2%; in data set [1] (other: intranasal, 50 ug/kg, intranasal 50 μg/kg, 0.1 w/v % solution in 5 w/v % D-mannitol, AUC intranasal / AUC intravenous), 4.22%; in data set [1] (other: intranasal, 50 ug/kg, intranasal 50 μg/kg, 0.1 w/v % solution in physiological saline, AUC intranasal / AUC intravenous) it was 3.08%. Also, the “saturated solubility in physiological saline” value in data set [2] turned out to be 0.15 w/v %.
